Source: ChEMBL document CHEMBL3588806, “Generation of Broad-Spectrum Antifungal Drug Candidates from the Natural Product Compound Aureobasidin A” (ACS Med Chem Lett, 2015)
Values after ≈ are worked out from the molar mass of the structure shown. Active and inactive are the calls of the source. The calls are words filed in the database; no cut-off is given here. Starred links: 1 amine or outer side, 2 acyl side, 3 side chain; linkers in the order of their positions; H or OH if unused. Non-standard residues stand in square brackets, D forms with d. Residues, ends and D or L forms follow the SMILES beside them. X2 = CN([C@@H](Cc1cccc(-c2cccc(-c3ccccc3)c2)c1)C(=O)[*:2])[*:1]; X4 = CN([C@@H](Cc1cccc(-c2ccc(-c3ccccc3)cc2)c1)C(=O)[*:2])[*:1]; X12 = CC(=O)Nc1ccc(-c2cccc(C[C@@H](C(=O)[*:2])N(C)[*:1])c2)cc1; X15 = CNC(=O)c1ccc(-c2cccc(C[C@@H](C(=O)[*:2])N(C)[*:1])c2)cc1; X7 = CN([C@@H](Cc1cccc(B2OC(C)(C)C(C)(C)O2)c1)C(=O)[*:2])[*:1]; X13 = COc1ccc(-c2cccc(C[C@@H](C(=O)[*:2])N(C)[*:1])c2)cc1; X3 = CN([C@@H](Cc1cccc(-c2ccc(Cl)cc2)c1)C(=O)[*:2])[*:1]; X8 = CN([C@@H](Cc1cccc(-c2ccc(Cl)nc2)c1)C(=O)[*:2])[*:1]; X10 = CCCCCC/C=C/c1cccc(C[C@@H](C(=O)[*:2])N(C)[*:1])c1; X6 = CN([C@@H](Cc1cccc(-c2ccccc2Cl)c1)C(=O)[*:2])[*:1]; X11 = CN([C@@H](Cc1ccc(-c2cccnc2)cc1)C(=O)[*:2])[*:1]; X14 = CN([C@@H](Cc1cccc(C2=CCCCC2)c1)C(=O)[*:2])[*:1]; X9 = CN([C@@H](Cc1cccc(-c2ccncc2)c1)C(=O)[*:2])[*:1]; NMePhe(3-Ph) = CN[C@@H](Cc1cccc(-c2ccccc2)c1)C(=O)O; X5 = CN([C@@H](Cc1cccc(B(O)O)c1)C(=O)[*:2])[*:1]; NMePhe(3-Br) = CN[C@@H](Cc1cccc(Br)c1)C(=O)O; NMePhe(3-I) = CN[C@@H](Cc1cccc(I)c1)C(=O)O; Hmp(2R,3S) = CC[C@H](C)[C@@H](O)C(=O)O; NMeVal(β-OH) = CN[C@H](C(=O)O)C(C)(C)O; NMeD = CN[C@@H](CC(=O)O)C(=O)O; NMeV = CN[C@H](C(=O)O)C(C)C

How the values were obtained:
Type in all cases: functional
Aspergillus fumigatus = assay: Antifungal activity against Aspergillus fumigatus by broth dilution method
Candida albicans = assay: Antifungal activity against Candida albicans by broth dilution method
[1] = Ratio of MIC for Aspergillus fumigatus to MIC for Candida albicans

Row | Compound | MIC (Aspergillus fumigatus) [µg/mL] | MIC (Candida albicans) [µg/mL] | Ratio [1] | Activity (Candida albicans)
1 | CC[C@H](C)[C@@H]1NC(=O)[C@@H]2CCCN2C(=O)[C@H](CC(=O)O)N(C)C(=O)[C@H](CC(=O)O)NC(=O)[C@H](C(C)C)N(C)C(=O)[C@@H]([C@@H](C)CC)OC(=O)[C@H](C(C)(C)O)N(C)C(=O)[C@H](CC(C)C)NC(=O)[C@H](C(C)C)N(C)C1=O (cyclo(D[NMeD]PI[NMeV]L[NMeVal(β-OH)][Hmp(2R,3S)][NMeV])) | > 100 | 10 (≈ 9.64 µM) |  | 
2 | CC[C@H](C)[C@@H]1NC(=O)[C@@H]2CCCN2C(=O)[C@H](Cc2cccc(Br)c2)N(C)C(=O)[C@H](CC(=O)O)NC(=O)[C@H](C(C)C)N(C)C(=O)[C@@H]([C@@H](C)CC)OC(=O)[C@H](C(C)(C)O)N(C)C(=O)[C@H](CC(C)C)NC(=O)[C@H](C(C)C)N(C)C1=O (cyclo(D[NMePhe(3-Br)]PI[NMeV]L[NMeVal(β-OH)][Hmp(2R,3S)][NMeV])) | 10 (≈ 8.71 µM) | 5 (≈ 4.35 µM) |  | 
3 | CC[C@H](C)[C@@H]1NC(=O)[C@@H]2CCCN2C(=O)[C@H](Cc2cccc(-c3ccccc3)c2)N(C)C(=O)[C@H](Cc2ccccc2)NC(=O)[C@H](C(C)C)N(C)C(=O)[C@@H]([C@@H](C)CC)OC(=O)[C@H](C(C)(C)O)N(C)C(=O)[C@H](CC(C)C)NC(=O)[C@H](C(C)C)N(C)C1=O (cyclo(F[NMePhe(3-Ph)]PI[NMeV]L[NMeVal(β-OH)][Hmp(2R,3S)][NMeV])) | < 0.94 | < 0.05 | > 10 | 
4 | CC[C@H](C)[C@@H]1NC(=O)[C@@H]2CCCN2C(=O)[C@H](Cc2cccc(-c3cccc(-c4ccccc4)c3)c2)N(C)C(=O)[C@H](Cc2ccccc2)NC(=O)[C@H](C(C)C)N(C)C(=O)[C@@H]([C@@H](C)CC)OC(=O)[C@H](C(C)(C)O)N(C)C(=O)[C@H](CC(C)C)NC(=O)[C@H](C(C)C)N(C)C1=O (cyclo(F[X2]PI[NMeV]L[NMeVal(β-OH)][Hmp(2R,3S)][NMeV])) | > 5 | < 5 |  | 
5 | CC[C@H](C)[C@@H]1NC(=O)[C@@H]2CCCN2C(=O)[C@H](Cc2cccc(-c3ccc(Cl)cc3)c2)N(C)C(=O)[C@H](Cc2ccccc2)NC(=O)[C@H](C(C)C)N(C)C(=O)[C@@H]([C@@H](C)CC)OC(=O)[C@H](C(C)(C)O)N(C)C(=O)[C@H](CC(C)C)NC(=O)[C@H](C(C)C)N(C)C1=O (cyclo(F[X3]PI[NMeV]L[NMeVal(β-OH)][Hmp(2R,3S)][NMeV])) | < 2.5 | < 0.5 | > 10 | 
6 | CC[C@H](C)[C@@H]1NC(=O)[C@@H]2CCCN2C(=O)[C@H](Cc2cccc(-c3ccc(-c4ccccc4)cc3)c2)N(C)C(=O)[C@H](Cc2ccccc2)NC(=O)[C@H](C(C)C)N(C)C(=O)[C@@H]([C@@H](C)CC)OC(=O)[C@H](C(C)(C)O)N(C)C(=O)[C@H](CC(C)C)NC(=O)[C@H](C(C)C)N(C)C1=O (cyclo(F[X4]PI[NMeV]L[NMeVal(β-OH)][Hmp(2R,3S)][NMeV])) | > 5 | < 5 |  | 
7 | CC[C@H](C)[C@@H]1NC(=O)[C@@H]2CCCN2C(=O)[C@H](Cc2cccc(B(O)O)c2)N(C)C(=O)[C@H](Cc2ccccc2)NC(=O)[C@H](C(C)C)N(C)C(=O)[C@@H]([C@@H](C)CC)OC(=O)[C@H](C(C)(C)O)N(C)C(=O)[C@H](CC(C)C)NC(=O)[C@H](C(C)C)N(C)C1=O (cyclo(F[X5]PI[NMeV]L[NMeVal(β-OH)][Hmp(2R,3S)][NMeV])) | > 100 | < 0.05 |  | 
8 | CC[C@H](C)[C@@H]1NC(=O)[C@@H]2CCCN2C(=O)[C@H](Cc2cccc(-c3ccccc3Cl)c2)N(C)C(=O)[C@H](Cc2ccccc2)NC(=O)[C@H](C(C)C)N(C)C(=O)[C@@H]([C@@H](C)CC)OC(=O)[C@H](C(C)(C)O)N(C)C(=O)[C@H](CC(C)C)NC(=O)[C@H](C(C)C)N(C)C1=O (cyclo(F[X6]PI[NMeV]L[NMeVal(β-OH)][Hmp(2R,3S)][NMeV])) | < 1.25 | < 0.5 | > 10 | 
9 | CC[C@H](C)[C@@H]1NC(=O)[C@@H]2CCCN2C(=O)[C@H](Cc2cccc(-c3ccncc3)c2)N(C)C(=O)[C@H](Cc2ccccc2)NC(=O)[C@H](C(C)C)N(C)C(=O)[C@@H]([C@@H](C)CC)OC(=O)[C@H](C(C)(C)O)N(C)C(=O)[C@H](CC(C)C)NC(=O)[C@H](C(C)C)N(C)C1=O (cyclo(F[X9]PI[NMeV]L[NMeVal(β-OH)][Hmp(2R,3S)][NMeV])) | < 1.25 | < 0.025 | > 10 | 
10 | CC[C@H](C)[C@@H]1NC(=O)[C@@H]2CCCN2C(=O)[C@H](Cc2ccc(-c3cccnc3)cc2)N(C)C(=O)[C@H](Cc2ccccc2)NC(=O)[C@H](C(C)C)N(C)C(=O)[C@@H]([C@@H](C)CC)OC(=O)[C@H](C(C)(C)O)N(C)C(=O)[C@H](CC(C)C)NC(=O)[C@H](C(C)C)N(C)C1=O (cyclo(F[X11]PI[NMeV]L[NMeVal(β-OH)][Hmp(2R,3S)][NMeV])) | < 2.5 |  |  | Active
11 | CC[C@H](C)[C@@H]1NC(=O)[C@@H]2CCCN2C(=O)[C@H](Cc2cccc(-c3ccc(NC(C)=O)cc3)c2)N(C)C(=O)[C@H](Cc2ccccc2)NC(=O)[C@H](C(C)C)N(C)C(=O)[C@@H]([C@@H](C)CC)OC(=O)[C@H](C(C)(C)O)N(C)C(=O)[C@H](CC(C)C)NC(=O)[C@H](C(C)C)N(C)C1=O (cyclo(F[X12]PI[NMeV]L[NMeVal(β-OH)][Hmp(2R,3S)][NMeV])) | > 5 |  |  | 
12 | CC[C@H](C)[C@@H]1NC(=O)[C@@H]2CCCN2C(=O)[C@H](Cc2cccc(C3=CCCCC3)c2)N(C)C(=O)[C@H](Cc2ccccc2)NC(=O)[C@H](C(C)C)N(C)C(=O)[C@@H]([C@@H](C)CC)OC(=O)[C@H](C(C)(C)O)N(C)C(=O)[C@H](CC(C)C)NC(=O)[C@H](C(C)C)N(C)C1=O (cyclo(F[X14]PI[NMeV]L[NMeVal(β-OH)][Hmp(2R,3S)][NMeV])) | > 5 |  |  | 
13 | CC[C@H](C)[C@@H]1NC(=O)[C@@H]2CCCN2C(=O)[C@H](Cc2cccc(-c3ccc(C(=O)NC)cc3)c2)N(C)C(=O)[C@H](Cc2ccccc2)NC(=O)[C@H](C(C)C)N(C)C(=O)[C@@H]([C@@H](C)CC)OC(=O)[C@H](C(C)(C)O)N(C)C(=O)[C@H](CC(C)C)NC(=O)[C@H](C(C)C)N(C)C1=O (cyclo(F[X15]PI[NMeV]L[NMeVal(β-OH)][Hmp(2R,3S)][NMeV])) | > 5 |  |  | 

Second part, led by results:

Row | MIC (Aspergillus fumigatus) [µg/mL] | MIC (Candida albicans) [µg/mL] | Compound | Ratio [1] | Activity (Candida albicans)
14 | 2.5 (≈ 2.12 µM) | 0.031 (≈ 0.0263 µM) | CC[C@H](C)[C@@H]1NC(=O)[C@@H]2CCCN2C(=O)[C@H](Cc2cccc(Br)c2)N(C)C(=O)[C@H](Cc2ccccc2)NC(=O)[C@H](C(C)C)N(C)C(=O)[C@@H]([C@@H](C)CC)OC(=O)[C@H](C(C)(C)O)N(C)C(=O)[C@H](CC(C)C)NC(=O)[C@H](C(C)C)N(C)C1=O (cyclo(F[NMePhe(3-Br)]PI[NMeV]L[NMeVal(β-OH)][Hmp(2R,3S)][NMeV])) |  | 
15 | > 5 | 2.5 (≈ 2.04 µM) | CC[C@H](C)[C@@H]1NC(=O)[C@@H]2CCCN2C(=O)[C@H](Cc2cccc(I)c2)N(C)C(=O)[C@H](Cc2ccccc2)NC(=O)[C@H](C(C)C)N(C)C(=O)[C@@H]([C@@H](C)CC)OC(=O)[C@H](C(C)(C)O)N(C)C(=O)[C@H](CC(C)C)NC(=O)[C@H](C(C)C)N(C)C1=O (cyclo(F[NMePhe(3-I)]PI[NMeV]L[NMeVal(β-OH)][Hmp(2R,3S)][NMeV])) |  | 
16 | 10 (≈ 8.15 µM) | < 0.5 | CC[C@H](C)[C@@H]1NC(=O)[C@@H]2CCCN2C(=O)[C@H](Cc2cccc(B3OC(C)(C)C(C)(C)O3)c2)N(C)C(=O)[C@H](Cc2ccccc2)NC(=O)[C@H](C(C)C)N(C)C(=O)[C@@H]([C@@H](C)CC)OC(=O)[C@H](C(C)(C)O)N(C)C(=O)[C@H](CC(C)C)NC(=O)[C@H](C(C)C)N(C)C1=O (cyclo(F[X7]PI[NMeV]L[NMeVal(β-OH)][Hmp(2R,3S)][NMeV])) |  | 
17 | < 1.25 | < 0.025 | CC[C@H](C)[C@@H]1NC(=O)[C@@H]2CCCN2C(=O)[C@H](Cc2cccc(-c3ccc(Cl)nc3)c2)N(C)C(=O)[C@H](Cc2ccccc2)NC(=O)[C@H](C(C)C)N(C)C(=O)[C@@H]([C@@H](C)CC)OC(=O)[C@H](C(C)(C)O)N(C)C(=O)[C@H](CC(C)C)NC(=O)[C@H](C(C)C)N(C)C1=O (cyclo(F[X8]PI[NMeV]L[NMeVal(β-OH)][Hmp(2R,3S)][NMeV])) | > 10 | 
18 | > 5 |  | CCCCCC/C=C/c1cccc(C[C@H]2C(=O)N3CCC[C@H]3C(=O)N[C@@H]([C@@H](C)CC)C(=O)N(C)[C@@H](C(C)C)C(=O)N[C@@H](CC(C)C)C(=O)N(C)[C@@H](C(C)(C)O)C(=O)O[C@H]([C@@H](C)CC)C(=O)N(C)[C@@H](C(C)C)C(=O)N[C@@H](Cc3ccccc3)C(=O)N2C)c1 (cyclo(F[X10]PI[NMeV]L[NMeVal(β-OH)][Hmp(2R,3S)][NMeV])) |  | 
19 |  | 5 (≈ 4.14 µM) | CC[C@H](C)[C@@H]1NC(=O)[C@@H]2CCCN2C(=O)[C@H](Cc2cccc(-c3ccc(OC)cc3)c2)N(C)C(=O)[C@H](Cc2ccccc2)NC(=O)[C@H](C(C)C)N(C)C(=O)[C@@H]([C@@H](C)CC)OC(=O)[C@H](C(C)(C)O)N(C)C(=O)[C@H](CC(C)C)NC(=O)[C@H](C(C)C)N(C)C1=O (cyclo(F[X13]PI[NMeV]L[NMeVal(β-OH)][Hmp(2R,3S)][NMeV])) |  | 
